This is an account of results in PubChem BioAssay (NCI).

Assay in all cases: growth of human tumour cells (NCI), 48 h
The subject of test [1] is KM12 colon.
Test [2] deals with SK-MEL-28 melanoma.
Test [3] relates to SR leukemia.
The subject of test [4] is HCT-15 colon.
Test [5] relates to NCI-H460 lung.
Test [6] has as its system M14 melanoma.
Test [7] has as its system SK-MEL-2 melanoma.
The subject of test [8] is MDA-MB-435.
The subject of test [9] is DU-145 prostate.

Values joined by “and” are separate entries in the source; they are usually repeats but may differ in a detail not shown here. Identical values can stand only once.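 Cells were grown in 96-well plates and exposed to each compound for 48 hours at five concentrations; endpoints were interpolated linearly between bracketing concentrations, or set to the highest concentration if not reached. The concentration for 50% growth inhibition is given as GI50. TGI is the concentration that stops growth completely.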

Turning to `COc1ccc2c(c1)C(=O)Cc1ccccc1CC2`, the TGI in test [1], in [2], in [3], in test [4], in [5] and in test [6] was more than 100 µM throughout. The same compound had a TGI in test [7] of more than 100 µM.

As for `CCOC1Oc2ccc(C)cc2C(=O)/C1=C\Nc1ccc(C(N)=O)cc1` (stereo not drawn), the GI50 is 16.6 µM in test [1]; 51.7 µM in test [2]; 20.1 µM in [8]; 11.4 µM in test [4]; 33.3 µM in test [5]; 17.2 µM in test [6]. The GI50 in test [9] was 21.7 µM; in [7] it was 34.4 µM. Also, the TGI in [1] is 34.3 µM; in test [2], more than 100 µM; in [8], 50.8 µM; in test [4], 30.6 µM; in test [5] it was more than 100 µM; in test [6], 33.4 µM. For the same compound, the TGI was 60.4 µM in [9] and more than 100 µM in test [7].

In the case of `O=C(Nc1ccc(-c2nc(N3CCOCC3)c3cccn3n2)cc1)Nc1cccnc1`, the GI50 is 0.162 µM in test [1]; 0.225 µM in test [8]; 0.245 µM in [3]; 0.143 µM in [4]; 0.142 µM in test [5]; 0.212 µM in test [9]. For the same compound, the GI50 in [7] is 0.333 µM. The TGI is 16.7 µM in test [1]; more than 100 µM in test [8]; 15 µM in [3]; more than 100 µM in test [4]; more than 100 µM in test [5]; more than 100 µM in [9]. The compound also showed a TGI in test [7] of more than 100 µM.

Regarding `O=C1CCC(N2C(=O)c3ccccc3C2=O)C(=O)N1CO` (stereo not drawn), the GI50 was more than 100 µM in [1]; more than 100 µM in test [2]; more than 100 µM in test [8]; 52.2 µM in test [4]; more than 100 µM in test [5]; 54.7 µM in [6]. For the same compound, the GI50 in test [9] is 25 µM; in test [7] it was more than 100 µM. Besides, the TGI in test [1], in [2], in test [8], in [4], in test [5] and in test [6] was more than 100 µM in each case. Also, the TGI in test [9] was 79.6 µM; in test [7], more than 100 µM.

In the case of `CNC(=O)C1CCc2nnc(-c3ccccc3)n21` (stereo not drawn), the TGI in test [1], in [2], in [3], in [4], in test [5] and in test [6] was more than 100 µM throughout. This compound registered a TGI in test [7] of more than 100 µM.

For `CCCCCCCC[C@@H](O)CC(=O)N[C@@H](CC(N)=O)C(=O)N[C@@H](CCC(N)=O)C(=O)N[C@@H](CC(=O)c1cc(C)cc(O)c1C(=O)c1c(O)cccc1O)CC(C)C`, the GI50 in test [1] is 0.971 µM; in [2], 1.59 µM; in test [3], 0.112 µM; in test [4], 2.25 µM; in test [5] it was 3.29 µM; in [6], 0.735 µM. Further, the GI50 is 1.14 µM in test [9] and 2.76 µM in test [7]. Moreover, the TGI in test [1] was 3.3 µM; in test [2] it was 25.5 µM; in test [3], more than 100 µM; in test [4] it was 23.8 µM; in test [5], 18.3 µM; in test [6], 18.4 µM. Also, the TGI in test [9] was determined as 18.3 µM; in test [7] it was 8.32 µM.

Consider `Cc1c(C(=O)C/C(=N/NC(=O)C[N+](C)(C)C)C(=O)Nc2ccc(Cl)cc2)[n+](=O)c2ccccc2n1O`, for which the TGI in test [1], in [2], in test [3], in test [4], in test [5] and in test [6] was more than 100 µM each time. The same compound had a TGI in test [7] of more than 100 µM.

As for `CC(=O)O[C@H]1C(=O)[C@@]2(C)C(C(OC(=O)c3ccccc3)[C@]3(O)CC(OC(=O)[C@H](OC(=O)CCC(=O)O)C(NC(=O)c4ccccc4)c4ccccc4)C(C)=C1C3(C)C)C1(OC(C)=O)COC1C[C@@H]2O` (stereo partly drawn), the TGI is < 0.01 µM and 0.0173 µM in test [3]; more than 100 µM in [4]; more than 100 µM in test [5]; 41.2 µM and > 100 µM in test [6]; 0.0715 µM and 0.193 µM in test [9]. Besides, the GI50 in test [6] is < 0.0111 µM and 0.0224 µM; in test [9] it was < 0.01 µM and 0.0319 µM.

As to `COc1cc2cc(Oc3ccc(NC(=O)Nc4ccc(Cl)c(C(F)(F)F)c4)cc3)c(C)nc2cc1OCCN1CCOCC1`, the GI50 was 1.91 µM in test [1]; 1.55 µM in [2]; 1.94 µM in [8]; 1.45 µM in test [4]; 1.65 µM in [5]; 1.52 µM in test [6]. The GI50 in test [9] is 2.69 µM; in test [7], 1.65 µM. In addition, the TGI in [1] turned out to be 5.3 µM; in [2], 3.12 µM; in test [8], 4.1 µM; in [4] it was 3.18 µM; in [5], 3.62 µM; in [6], 3.45 µM. The TGI in [9] came out at 13.8 µM; in test [7], 4.06 µM.

Consider `COc1ccc2c(c1)C(=O)c1c-2n(CCCn2ccnc2)c(=O)c2cc([N+](=O)[O-])ccc12`, for which the GI50 in test [1] was less than 0.0229 µM; in [3] it was less than 0.01 µM; in test [4], less than 0.0329 µM; in [5], less than 0.01 µM; in test [6], less than 0.01 µM; in test [9], less than 0.01 µM. Further, the GI50 in test [7] is 0.245 µM. Besides, the TGI was 8.69 µM in test [1]; more than 100 µM in [2]; more than 100 µM in [4]; 0.241 µM in [5]; less than 0.01 µM in [6]; less than 0.0294 µM in test [9].

Take `O/N=C/c1ncccc1C1OCCO1`: the TGI in test [1], in test [2], in test [3], in test [4], in [5] and in [6] was more than 100 µM throughout. In test [7], this compound came in with a TGI of more than 100 µM.

With `N#C/C(=C\c1ccc2ccccc2c1)c1ccccc1`, the TGI in [1] was more than 100 µM; in [2], more than 100 µM; in test [3] it was more than 100 µM; in test [4], more than 100 µM; in [5], 34 µM; in test [6], 65.6 µM. In [7], the TGI is 85 µM.
